Experimental data: PMC10609720, “Antiviral Activity of Flavonoids from Geopropolis of the Brazilian Jandaira Bee against Zika and Dengue Viruses” (Pharmaceutics, 2023)

Experiments:
ZIKV = experiment: Post-treatment antiviral assay, viral titration by TCID50, ZIKV-infected Vero cells; format: cell-based; conditions: for % ZIKV Inhibition / IC50: Vero cells; for % ZIKV Inhibition: MOI 0.1, treated with CC20 of each sample for 120 h, TCID50; for IC50 / SI: ZIKV; for IC50: MOI 0.1, concentration to reduce viral titer by 50%; for ZIKV-induced cytopathic effect in Vero cell monolayers: treatment at CC20, microscopy, Figure 4B,C; for SI: ratio of CC50 and IC50
Procedure: (§1) One day prior to infection with the ZIKV or DENV strain, Vero cells were seeded in 24-well plates (5 × 10^4 cells/well). The infection was performed at the multiplicity of infection (MOI) of 0.1 for 2 h at 37 °C in 5% CO2. After virus internalization, the inoculum was removed, and the cells were washed using the growth medium. […] 6-MMPr, used as positive control drug, was also included as a drug treatment in some wells [33]. Controls of mock (non-infected) and infected non-treated cells were included. At 120 h post-infection (hpi), the cytopathic effect was evaluated using an inverted microscope (AE2000 binocular microscope, Motic, Hong Kong), and cells were photographed with a smartphone. The cell supernatant was harvested at 120 hpi and stored at −80 °C for posterior virus titration, using the TCID50 method.
(§2) The TCID50 method was used here to perform viral titration. The titer values were expressed as log10 TCID50/mL. One day prior to titration, Vero cells were seeded in a 96-well plate (1 × 10^4 cells/well) at 37 °C in a 5% CO2 incubator. The cell supernatants that were previous stored (see item 2.5—cytopathic effect assay) were serially diluted 10-fold in DMEM and submitted to the cell monolayer. After incubation for 5 days at 37 °C and 5% CO2, the cytopathic effect was observed through an inverted optical microscope, and the reduction in viral titer was defined according to Reed–Muench parameters.
(§3) The differences in viral titer of treated and untreated infected cells were analyzed according to ANOVA followed by the Dunnett test using GraphPad Prism software v.5.01 (GraphPad Software, La Jolla, CA, USA). The drug concentration that reduced viral titer by 50% (IC50) was defined using the same software. This represents the compound concentration required to reduce ZIKV or DENV titer by 50% when compared with the non-treated cells. The CC50 and CC20 values were also calculated using GraphPad Prism software in a non-linear regression interpretation. The selective index (SI) was based on the ratio math of CC50 and IC50 values. Data were reported as the mean ± standard deviation (SD) of three independent experiments. Significance was only considered when p < 0.05.

Vero cells = experiment: Cell viability assay (MTT) in Vero cells; format: cell-based; conditions: Vero cells
Procedure: (§4) The cell toxicity induced by the three tested fractions and the isolated flavonoids was evaluated in a growing Vero cell. […] To this end, Vero cells (1 × 10^4 cells/well) were plated in 96-well microplates 24 h beforehand. […] After a period of 120 h at 37 °C in a 5% CO2 atmosphere, the culture medium was removed from the plate, and 50 μL of recently prepared MTT solution (1 mg/mL) was then added. The 96-well microplate was placed in a CO2 incubator for 4 h at 37 °C. After this period, the MTT solution was replaced by DMSO. Then, the optical density at 540 nm (OD540) was measured using a BioTekTM ELx800TM 96-well plate reader (BioTek Instruments Inc., Winooski, VT. The OD540 subtraction of treated cells compared to untreated cells was calculated. […] The CC20 value was empirically defined as the maximum safe limit to perform the antiviral screening. Results were expressed as mean ± SD of three independent replicates. The differences in viral titer of treated and untreated infected cells were analyzed according to ANOVA followed by the Dunnett test using GraphPad Prism software v.5.01 (GraphPad Software, La Jolla, CA, USA). The drug concentration that reduced viral titer by 50% (IC50) was defined using the same software. […] The CC50 and CC20 values were also calculated using GraphPad Prism software in a non-linear regression interpretation. The selective index (SI) was based on the ratio math of CC50 and IC50 values. Data were reported as the mean ± standard deviation (SD) of three independent experiments. Significance was only considered when p < 0.05.

[1] = Cell viability assay (MTT) in Vero cells; format: cell-based; conditions: African green monkey
Procedure: as §4

DENV-2 = experiment: Post-treatment antiviral assay, viral titration by TCID50, DENV-infected Vero cells; format: cell-based; conditions: for IC50 / SI: DENV; for IC50 / % DENV-2 Inhibition: Vero cells; for IC50: MOI 0.1, concentration to reduce viral titer by 50%; for % DENV-2 Inhibition: MOI 0.1, treated with CC20 of each sample for 120 h, TCID50; for SI: ratio of CC50 and IC50
Procedure: as §1, §2, §3

Hela cells = test system: Hela cells; design: method as in PMID 29354400; conditions: at the tested concentrations, ref [59]; cited from earlier work
[2] = Table 3, non-toxic concentration used in the antiviral assays

O=C1C[C@@H](c2ccc(O)cc2)Oc2cc(O)cc(O)c21 [Naringenin]
% ZIKV Inhibition (ZIKV): 34.7% | IC50 (ZIKV; Zika virus): 58.9 µM | ZIKV-induced cytopathic effect in Vero cell monolayers (ZIKV): prevented morphological modifications | CC20 (Vero cells; Table 2, MTT method, 120 h): 86.43 µM/mL | CC20 (Vero cells; [2]): 86.43 μM/mL | CC50 at 120 h [1]: 242 µM | IC50 (DENV-2; Dengue virus, DENV2): 42.9 µM | % DENV-2 Inhibition (DENV-2): 61.5%

COc1cc(O)c2c(c1)O[C@H](c1ccc(O)cc1)CC2=O [7-O-methyl naringenin]
% ZIKV Inhibition (ZIKV): 30.3% | SI (ZIKV): 18.7 | IC50 (ZIKV; Zika virus): 12.8 µM | ZIKV-induced cytopathic effect in Vero cell monolayers (ZIKV): prevented morphological modifications | CC50 at 120 h [1]: 240 µM | SI (DENV-2): 7.7 | IC50 (DENV-2; Dengue virus, DENV2): 30.9 µM | % DENV-2 Inhibition (DENV-2): 51.6% | DENV-induced cytopathic effect in Vero cell monolayers (DENV-2; treatment at CC20, microscopy, Figure 5B,C): prevented morphological modifications | cell viability (Hela cells): 100%

CSc1ncnc2c1ncn2[C@@H]1O[C@H](CO)[C@@H](O)[C@H]1O [6-MMPr, 6-methylmercaptopurine riboside, reference compound]
% ZIKV Inhibition (ZIKV): 51.5% | IC50 (ZIKV): 24.5 µM | SI (ZIKV): 11.9 | CC50 (Vero cells; Table 2, MTT method, 120 h): 291 µM | CC50 (Vero cells; Table 3): 291 µM | CC20 (Vero cells; [2]): 60.5 μM/mL | IC50 (DENV-2): 18.2 µM | SI (DENV-2): 16.0 | % DENV-2 Inhibition (DENV-2): 48.3%
